Our source for the IC50, Activity and GI50 values is ChEMBL document CHEMBL1155596, “8-O-Methylsclerotiorinamine, antagonist of the Grb2-SH2 domain, isolated from Penicillium multicolor” (J Nat Prod, 2000).

Data set [1] has as its target Growth factor receptor-bound protein 2 (Homo sapiens, UniProt P62993). The data set is described as follows: Inhibition of GST tagged Grb2 SH2 domain binding to Shc-derived [3H]phosphopeptide.
For data set [2], the target named is Growth factor receptor-bound protein 2 (Mus musculus) (UniProt Q60631). The data set is described as follows: Inhibition of Shc-Grb2 interaction in mouse B104-1-1 cells by immunoblotting. In kind it is cell-based. The arrangement: scale not given: the % may be the effect or the level left.
Data set [3] in a line: Growth inhibition of mouse B104-1-1 cells after 48 hrs by WST1 assay. In kind it is cell-based.

Chain of Growth factor receptor-bound protein 2 (Mus musculus) (Q60631 whole entry): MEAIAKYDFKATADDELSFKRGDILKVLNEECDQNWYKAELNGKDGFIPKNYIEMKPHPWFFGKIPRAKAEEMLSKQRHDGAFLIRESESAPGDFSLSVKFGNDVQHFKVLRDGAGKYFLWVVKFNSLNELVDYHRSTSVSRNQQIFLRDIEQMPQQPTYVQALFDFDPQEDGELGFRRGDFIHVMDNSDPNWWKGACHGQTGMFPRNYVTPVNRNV
Chain of Growth factor receptor-bound protein 2 (P62993 whole entry, the tested form may be a part): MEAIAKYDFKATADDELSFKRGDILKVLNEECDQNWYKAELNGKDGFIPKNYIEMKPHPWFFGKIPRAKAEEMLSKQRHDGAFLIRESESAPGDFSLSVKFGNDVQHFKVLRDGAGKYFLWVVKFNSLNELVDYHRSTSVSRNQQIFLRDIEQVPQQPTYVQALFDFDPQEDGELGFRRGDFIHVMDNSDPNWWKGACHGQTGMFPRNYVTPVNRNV

Molecule `CCC(C)/C=C(C)/C=C/c1cc2c(cn1)=C(OC)[C@@](C)(OC(C)=O)C(=O)C=2Cl` (stereo partly drawn) gave an IC50 in data set [1] of 5.3 µM. The molecule further had an Activity in data set [2] of 50%. Besides, the GI50 at 48 h in data set [3] is 50 µM.

In general, IC50 refers to the concentration at which inhibition is half-maximal. A word on the GI50: it is the concentration at which growth is held to half of that of the control.
